Active and inactive are the calls of the source. The rule behind the calls is not given here.
Experiments:
K562 [1] = test: Cell cycle arrest in human K562 cells assessed as accumulation at S phase after 24 hrs using propidium iodide staining at 10 uM by flow cytometry (reference value: 45.94%); format: functional
K562 [2] = test: Cytotoxicity against human K562 cells after 48 hrs by trypan blue dye exclusion test; format: functional, cell-based; settings: K562, 48 h
K562 [3] = test: Cell cycle arrest in human K562 cells assessed as accumulation at G1 phase after 24 hrs using propidium iodide staining at 10 uM by flow cytometry (reference value: 39.05%); format: functional
K562 [4] = test: Cell cycle arrest in human K562 cells assessed as accumulation at G2-M phase after 24 hrs using propidium iodide staining at 10 uM by flow cytometry (reference value: 15.01%); format: functional
K562 [5] = test: Reduction in pSTAT5 expression level in human K562 cells at 10 uM after 24 hrs by FACScan flow cytometry; format: functional, cell-based
K562 [6] = test: Induction of apoptosis in human K562 cells by annexin V/propidium iodide staining-based flow cytometric analysis; format: functional, cell-based
K562 [7] = test: Cell cycle arrest in human K562 cells assessed as accumulation at G1 phase after 24 hrs using propidium iodide staining at 30 uM by flow cytometry (reference value: 39.05%); format: functional
K562 [8] = test: Effect on pSTAT5 expression level in human K562 cells at 20 uM after 24 hrs by FACScan flow cytometry; format: functional, cell-based
K562 [9] = test: Cell cycle arrest in human K562 cells assessed as accumulation at G2-M phase after 24 hrs using propidium iodide staining at 30 uM by flow cytometry (reference value: 15.01%); format: functional
K562 [10] = test: Cell cycle arrest in human K562 cells assessed as accumulation at S phase after 24 hrs using propidium iodide staining at 30 uM by flow cytometry (reference value: 45.94%); format: functional
K562 [11] = test: Cell cycle arrest in human K562 cells assessed as accumulation at G2-M phase after 24 hrs using propidium iodide staining at 40 uM by flow cytometry (reference value: 15.01%); format: functional
K562 [12] = test: Cell cycle arrest in human K562 cells assessed as accumulation at G1 phase after 24 hrs using propidium iodide staining at 40 uM by flow cytometry (reference value: 39.05%); format: functional
K562 [13] = test: Cell cycle arrest in human K562 cells assessed as accumulation at S phase after 24 hrs using propidium iodide staining at 40 uM by flow cytometry (reference value: 45.94%); format: functional
K562 [14] = test: Effect on pSTAT5 expression level in human K562 cells at 30 uM after 24 hrs by FACScan flow cytometry; format: functional, cell-based
K562 [15] = test: Cell cycle arrest in human K562 cells assessed as accumulation at G2-M phase after 24 hrs using propidium iodide staining at 20 uM by flow cytometry (reference value: 15.01%); format: functional
K562 [16] = test: Cell cycle arrest in human K562 cells assessed as accumulation at S phase after 24 hrs using propidium iodide staining at 20 uM by flow cytometry (reference value: 45.94%); format: functional
K562 [17] = test: Cell cycle arrest in human K562 cells assessed as accumulation at G1 phase after 24 hrs using propidium iodide staining at 20 uM by flow cytometry (reference value: 39.05%); format: functional
K562 [18] = test: Cell cycle arrest in human K562 cells assessed as accumulation at G2-M phase after 24 hrs using propidium iodide staining at 7 uM by flow cytometry (reference value: 15.01%); format: functional
K562 [19] = test: Cell cycle arrest in human K562 cells assessed as accumulation at G1 phase after 24 hrs using propidium iodide staining at 7 uM by flow cytometry (reference value: 39.05%); format: functional
K562 [20] = test: Induction of pSTAT5 expression level in human K562 cells at 10 uM after 24 hrs by FACScan flow cytometry; format: functional, cell-based
K562 [21] = test: Cell cycle arrest in human K562 cells assessed as accumulation at S phase after 24 hrs using propidium iodide staining at 7 uM by flow cytometry (reference value: 45.94%); format: functional
K562 [22] = test: Induction of pSTAT5 expression level in human K562 cells at 15 uM after 24 hrs by FACScan flow cytometry; format: functional, cell-based
K562 [23] = test: Ratio of Pimozide IC50 to compound IC50 for human K562 cells by trypan blue dye exclusion test; format: functional
K562 [24] = test: Cell cycle arrest in human K562 cells assessed as accumulation at S phase after 24 hrs using propidium iodide staining at 5 uM by flow cytometry (reference value: 45.94%); format: functional
K562 [25] = test: Cell cycle arrest in human K562 cells assessed as accumulation at G1 phase after 24 hrs using propidium iodide staining at 5 uM by flow cytometry (reference value: 39.05%); format: functional
K562 [26] = test: Cell cycle arrest in human K562 cells assessed as accumulation at G2-M phase after 24 hrs using propidium iodide staining at 5 uM by flow cytometry (reference value: 15.01%); format: functional
K562 [27] = test: Ratio of Pimozide AC50 to compound AC50 for human K562 cells by annexin V/propidium iodide staining-based flow cytometric analysis; format: functional
K562 [28] = test: Ratio of Pimozide to compound for pSTAT5 expression level in human K562 cells; format: functional
K562 [29] = test: Effect on pSTAT5 expression level in human K562 cells at 10 uM after 24 hrs by FACScan flow cytometry; format: functional, cell-based

O=c1[nH]c2ccccc2n1C1CCN(CCCC(c2ccc(F)cc2)c2ccc(F)cc2)CC1 [PIMOZIDE]
Activity (K562 [1]): 38.41% | IC50 (K562 [2]): 5 µM | Activity (K562 [3]): 51.28% | Activity (K562 [4]): 10.31% | Activity (K562 [5]): Dose-dependent effect | AC50 (K562 [6]): 10 µM

O=C(CCC(c1ccc(F)cc1)c1ccc(F)cc1)N1CCC(n2c(=O)[nH]c3ccccc32)CC1
IC50 (K562 [2]): > 50 µM | AC50 (K562 [6]): > 50 µM

O=C(CCC(c1ccccc1)c1ccccc1)N1CCC(n2c(=O)[nH]c3ccccc32)CC1
IC50 (K562 [2]): 14 µM | Activity (K562 [7]): 48.02% | Activity (K562 [8]): inactive | Activity (K562 [9]): 20.41% | Activity (K562 [10]): 31.57% | AC50 (K562 [6]): 19 µM

C=CC(=O)N1CCC(n2c(=O)[nH]c3ccccc32)CC1
IC50 (K562 [2]): > 50 µM | AC50 (K562 [6]): > 50 µM

CN1CCC(n2c(=O)[nH]c3ccccc32)CC1
IC50 (K562 [2]): > 50 µM | AC50 (K562 [6]): > 50 µM

O=C(Cc1ccc([N+](=O)[O-])cc1)N1CCC(n2c(=O)[nH]c3ccccc32)CC1
IC50 (K562 [2]): 35 µM | Activity (K562 [11]): 6.07% | Activity (K562 [12]): 31.72% | Activity (K562 [13]): 62.21% | Activity (K562 [14]): inactive | AC50 (K562 [6]): > 50 µM

N#CCC(=O)N1CCC(n2c(=O)[nH]c3ccccc32)CC1
IC50 (K562 [2]): > 50 µM | AC50 (K562 [6]): > 50 µM

O=C(CC=C(c1ccccc1)c1ccccc1)N1CCC(n2c(=O)[nH]c3ccccc32)CC1
IC50 (K562 [2]): 13 µM | Activity (K562 [15]): 7.33% | Activity (K562 [8]): inactive | Activity (K562 [16]): 58.57% | AC50 (K562 [6]): 18 µM | Activity (K562 [17]): 34.1%

O=c1[nH]c2ccccc2n1C1CCNCC1
IC50 (K562 [2]): > 50 µM | AC50 (K562 [6]): > 50 µM

O=C(CBr)N1CCC(n2c(=O)[nH]c3ccccc32)CC1
Activity (K562 [18]): 9.22% | IC50 (K562 [2]): 2.4 µM | Activity (K562 [19]): 47.55% | Activity (K562 [20]): Active | Activity (K562 [21]): 43.23% | Activity (K562 [22]): Active | AC50 (K562 [6]): 4.8 µM

O=C(CI)N1CCC(n2c(=O)[nH]c3ccccc32)CC1
Ratio IC50 (K562 [23]): 2.7 | Activity (K562 [24]): 39.06% | Activity (K562 [25]): 46.96% | IC50 (K562 [2]): 1.8 µM | Activity (K562 [20]): Active | Activity (K562 [26]): 13.98% | Activity (K562 [22]): Active | Ratio IC50 (K562 [27]): 2 | AC50 (K562 [6]): 5 µM | Ratio IC50 (K562 [28]): 1.49

O=C(CC=C(c1ccc(F)cc1)c1ccc(F)cc1)N1CCC(n2c(=O)[nH]c3ccccc32)CC1
IC50 (K562 [2]): 18 µM | Activity (K562 [7]): 47.2% | Activity (K562 [8]): inactive | Activity (K562 [9]): 6.16% | Activity (K562 [10]): 46.64% | AC50 (K562 [6]): 35 µM

COc1ccc(CC(=O)N2CCC(n3c(=O)[nH]c4ccccc43)CC2)cc1
IC50 (K562 [2]): > 50 µM | AC50 (K562 [6]): > 50 µM

O=C(Cc1ccccc1)N1CCC(n2c(=O)[nH]c3ccccc32)CC1
IC50 (K562 [2]): > 50 µM | AC50 (K562 [6]): > 50 µM

O=C(CCl)N1CCC(n2c(=O)[nH]c3ccccc32)CC1
Activity (K562 [1]): 60.23% | IC50 (K562 [2]): 7.3 µM | Activity (K562 [3]): 33.67% | Activity (K562 [29]): inactive | Activity (K562 [4]): 6.1% | AC50 (K562 [6]): 14 µM

O=C(Cc1cc2ccccc2[nH]1)N1CCC(n2c(=O)[nH]c3ccccc32)CC1
IC50 (K562 [2]): > 50 µM | AC50 (K562 [6]): > 50 µM

CC(=O)N1CCC(n2c(=O)[nH]c3ccccc32)CC1
IC50 (K562 [2]): > 50 µM | AC50 (K562 [6]): > 50 µM
